Target: T1, P. pastoris-expressed Der f 1 protein (Dermatophagoides farinae, UniProt P16311, D282V)
T1 construct: The Der f 1 protein secreted as a mature form by recombinant cell P. pastoris HCY215; S. cerevisiae alpha factor signal peptide (with KEX2 site and Glu-Ala spacer) (N, cleaved yes); made in house; host or cells: Pichia pastoris strain X33 transformed with pBC128 (recombinant cell HCY215)
Test: Inhibition of rDer f 1 cysteine protease activity by E-64
Type: biochemical, D. farinae
Settings: E-64 1 μg/ml
Experimental: Native Der f 1 is believed to be a cysteine protease, based on homology to papain; see, for example, Chua et al, 1992, J Exp Med 167, 175-182. The Der f 1 protein secreted as a mature form by recombinant cell P. pastoris HCY215 (i.e., P. pastoris strain X33 transformed with plasmid pBC128 containing nucleic acid molecule nDerf1909b (coding strand of SEQ ID NO:28) which encodes the pro-form of Der f 1 (amino acid sequence SEQ ID NO:29)) was tested for cysteine protease activity in the following manner. Three concentrations of protein were tested for their abilities to cleave an artificial substrate in the presence or absence of a cysteine protease inhibitor. Specifically, three pairs of samples containing 0.56 μg, 1.1 μg, or 5.6 μg of P. pastoris-expressed Der f 1 protein, respectively, were incubated for 30 minutes at room temperature in 20 μl of 50 mM Tris-HCl, pH 8. One member of each pair also contained the irreversible cysteine protease inhibitor E-64 at a concentration of 1 μg/ml. After the pre-incubation, 100 μl of 50 μM quenched fluorogenic substrate z-Val-Leu-Arg-AMC (available from Enzyme Systems Products, Livermore, Calif.) was added to all six samples, and the samples were incubated for 2 hours at room temperature. Fluorescence was measured using a Perkin Elmer Luminescence Spectrometer (model #LS50B) at an excitation wavelength of 380nm and an emission wavelength of 460 nm.

T1 sequence (P16311 99-321 D282V): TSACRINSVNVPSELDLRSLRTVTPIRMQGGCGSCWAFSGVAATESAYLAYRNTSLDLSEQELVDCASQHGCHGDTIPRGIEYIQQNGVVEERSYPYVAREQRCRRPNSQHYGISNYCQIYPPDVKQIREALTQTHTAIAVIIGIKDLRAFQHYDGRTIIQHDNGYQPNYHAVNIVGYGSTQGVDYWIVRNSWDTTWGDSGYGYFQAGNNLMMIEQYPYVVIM

Q: What does the source list for CC(C)C[C@H](NC(=O)[C@H]1O[C@@H]1C(=O)O)C(=O)NCCCCN=C(N)N [E-64]?
A: % Inhibition E-64 (0.56 micrograms rDer f 1): 65%; % Inhibition E-64 (1.1 micrograms rDer f 1): 55%; % Inhibition E-64 (5.6 micrograms rDer f 1): 76%

Source: patent US8465945B2, “Method for production and use of mite group 1 proteins” (Merck Patent GmbH, priority 1999, dated 2013)
